The nature of one data set: in vivo. Further details: species or system mice. As to conditions: male, athymic nude, mouse, 0.74 MBq, total radioactivity. As to the method: At 0.5 h and 1 h after injection of the tracer, the tumor-bearing mice were killed and dissected. Blood, tumor, major organs, and tissues were collected and wet-weighed. The radioactivity in the tissue was measured by y counter (Packard). The results are presented as percentage injected dose per gram of tissue (% ID/g). For each mouse, the radioactivity of the tissue samples was calibrated against a known aliquot of the injectate and normalized to a body mass of 20 g. Values were expressed as mean±SD for groups of four animals (n=4 per group).

The next data set concerns PC-3 tumor. Put plainly: Small-animal PET of PC-3 tumor-bearing mice.
Data set [1] in a line: MicroPET blood and normal organ uptake in T47D and MDA-MB-435 tumor-bearing nude mice. To be noted: for tissue uptake at 2 h / tissue uptake at 0.5 h / tissue uptake at 1 h / tissue uptake at 4 h / tissue uptake at 24 h: nude, mouse, iv, total radioactivity. The source says:
The T47D or MDA-MB435 tumor uptake is expressed as the average of each tracer in four mice, while the normal organ uptake is expressed as the average of each tracer in eight mice (four T47D tumor-bearing mice and four MDA-MB-435 tumor-bearing mice per tracer).

Another data set has as its system T47D tumor. Put plainly: MicroPET of T47D tumor-bearing mice. In kind it is in vivo. To be noted: orthotopic model.
The next data set has as its system PC-3 tumor cells. In kind it is cell-based, human. The procedure:
In the cell efflux experiment, PC-3 cells were seeded into 12-well plates at a density of 5×10^5 cells per well for overnight incubation. Cells were rinsed 3 times with PBS and then the appropriate ^18F-labeled peptide tracer was added. The cells were incubated at 37° C. for 2 hr, washed with PBS, and then reincubated with serum-free medium. The cells were washed at different time points (0, 15, 30, 60, 120, 180 min) with PBS and lysed with NaOH-SDS (0.2 M NaOH, 1% SDS). The cell lysate was collected in measurement tubes for counting. Efflux values at different time points were calculated by subtracting retention from 0-min retention, and normalized by dividing the total counts at 0 min.
The cell uptake studies were performed as we have previously described with some modifications (Chen et al., Mol Imaging Biol. (2004) […]; Cai et al., (2006) J. Nuc. Med. 47: 1172-1180, incorporated herein by reference in their entireties). Briefly, PC-3 cells were seeded into 12-well plates at a density of 5×10^5 cells per well and incubated (about 18 kBq/well) with ^68Ga-labeled tracers at 37° C. for 15, 30, 60, and 120 min. Tumor cells were then washed three times with chilled PBS and harvested by trypsinization with 0.25% trypsin/0.02% EDTA (Invitrogen). The cell suspensions were collected and measured in a y counter (Packard, Meriden, Conn.). The cell uptake was expressed as the percent added dose (% AD) after decay correction. Experiments were performed twice with triplicate wells. For efflux studies, ^68Ga-labeled tracers (about 18 kBq/well) were first incubated with PC-3 cells in 12-well plates for 1 h at 37° C. to allow internalization. Then cells were washed twice with PBS, and incubated with cell culture medium for 15, 30, and 60 min. After washing three times with PBS, cells were harvested by trypsinization with 0.25% trypsin/0.02% EDTA. The cell suspensions were collected and measured in a γ counter. Experiments were performed twice with triplicate wells. Data are expressed as percent added dose after decay correction.

For a further data set, the system named is MDA-MB-435 tumor. Briefly: Small-animal PET of MDA-MB-435 tumor-bearing mice. As to conditions: female, athymic nude, mouse, in vivo, iv.
Setting [2] is: blood, Blood uptake, average of eight mice.
The mark [3] stands for this setting: kidney, Kidney uptake, average of eight mice.
[4] abbreviates: liver, Liver uptake, average of eight mice.
Setting [5] is: muscle, Muscle uptake, average of eight mice.

Where only a bound is given, the exact number is not on record here.

Description for T47D tumor: The MDA-MB-231, MDA-MB468, BT474, BT-20, T47D, MCF-7 and MDA-MB435 human breast cancer cell lines were all obtained from the American Type Culture Collection (ATCC) and maintained under standard conditions according to ATCC. The MDA-MB435 tumor model was established by orthotopic injections of 5×10^6 cells into the right mammary fat pad of female athymic nude mice. For T47D tumor model establishment, the female nude mice were first subcutaneously implanted with 60-day release 17β-estradiol pellets (Innovative Research of America, Sarasota, Fla.) in the left neck. One day after the estradiol implantation, 1×10^7 T47D cells were orthotopically injected into the right mammary fat pad of the nude mice. The mice were subjected to microPET studies when the tumor volume reached 100-300 mm^3 (2-3 weeks for MDA-MB-435, and 4-5 wk for T47D).
Quantification of tumor and major organ activity accumulation in the microPET scans was realized by measuring the regions of interest (ROIs) that encompassing the entire organ on the coronal images.

The tissue uptake is the percentage of the injected dose found per gram of tissue. Turning to `CSCC[C@H](NC(=O)[C@H](CC(C)C)NC(=O)[C@H](Cc1c[nH]cn1)NC(=O)CNC(=O)[C@@H](NC(=O)[C@H](C)NC(=O)[C@H](Cc1c[nH]c2ccccc12)NC(=O)[C@H](CCC(N)=O)NC(=O)CCCCCNC(=O)CC[C@H](NC(=O)COCCOCCOCCNC(=O)c1ccc([18F])cc1)C(=O)NCCCC[C@@H]1NC(=O)[C@@H](Cc2ccc(O)cc2)NC(=O)[C@H](CC(=O)O)NC(=O)CNC(=O)[C@H](CCCNC(=N)N)NC1=O)C(C)C)C(N)=O` [^18F-FB-PEG3-RGD-BBN], the tissue uptake at 1 h was 4.87 ± 0.67 %ID/g in “in vivo” (kidney uptake, biodistribution); 4 ± 0.08 %ID/g in “in vivo” (tumor uptake, biodistribution); below 2 %ID/g in “in vivo” (uptake values in the blood, heart, liver, spleen, bone, and muscle); 0.41 ± 0.11 %ID/g in data set [1] (blood); 1.56 ± 0.32 %ID/g in data set [1] (kidney); 0.56 ± 0.21 %ID/g in data set [1] (liver). Further, in data set [1] (muscle), the tissue uptake at 1 h stood at 0.33 ± 0.17 %ID/g. Also, in the data set with PC-3 tumor (1 h, Aca-BBN(7-14) 15 mg/kg, n=3), the “decrease of tumor uptake by BBN blocking” value stood at 65%. In addition, in the data set on PC-3 tumor (1 h, RGD 10 mg/kg and BBN 15 mg/kg, n=3), the “decrease of tumor uptake by RGD and BBN blocking” value is 90%. Further, the “decrease of tumor uptake by RGD blocking” value in the data set on PC-3 tumor (1 h, c(RGDyK) 10 mg/kg, n=3) was found to be 50%. Also, in the data set with PC-3 tumor (mouse, in vivo), the “blood % ID/g at 30 min relative to that at 2 min p.i.” value is 35%. In addition, the “time of peak kidney uptake” value with PC-3 tumor (mouse, in vivo) is on record as “about 10 min”. Moreover, in data set [1] (average of eight mice, 0.5 h), the Liver uptake was 1.13±0.43 % ID/g. This compound registered a Kidney uptake in data set [1] (average of eight mice, 2 h) of 0.74±0.19 % ID/g. The tissue uptake at 2 h in data set [1] (female, kidney) amounted to 0.74 ± 0.19 %ID/g; in data set [1] (blood), 0.18 ± 0.02 %ID/g; in data set [1] (liver) it was 0.23 ± 0.07 %ID/g; in data set [1] (muscle), 0.15 ± 0.05 %ID/g. Further, the tissue uptake at 0.5 h in data set [1] (female, liver) came to 1.13 ± 0.43 %ID/g; in data set [1] (blood), 0.78 ± 0.37 %ID/g; in data set [1] (kidney), 2.77 ± 0.78 %ID/g; in data set [1] (muscle), 0.81 ± 0.23 %ID/g. In addition, the T47D tumor uptake in the data set on T47D tumor (0.5 h) was found to be 2.96±0.53 % ID/g; in the data set with T47D tumor (1 h), 1.81±0.34 % ID/g; in the data set on T47D tumor (2 h) it was 0.91±0.12 % ID/g. The efflux ratio entry in the data set with PC-3 tumor cells is on record as “about 40%”.

Consider `CSCC[C@H](NC(=O)[C@H](CC(C)C)NC(=O)[C@H](Cc1c[nH]cn1)NC(=O)CNC(=O)[C@@H](NC(=O)[C@H](C)NC(=O)[C@H](Cc1c[nH]c2ccccc12)NC(=O)[C@H](CCC(N)=O)NC(=O)CCCCCNC(=O)CC[C@H](NC(=S)Nc1ccc(C[C@H]2CN(CC(=O)O)CCN(CC(=O)O)CCN2CC(=O)O)cc1)C(=O)NCCCC[C@@H]1NC(=O)[C@@H](Cc2ccc(O)cc2)NC(=O)[C@H](CC(=O)O)NC(=O)CNC(=O)[C@H](CCCNC(=N)N)NC1=O)C(C)C)C(N)=O` [^64Cu-NOTA-RGD-BBN, metal not drawn], for which the figures for the MDA-MB-435 tumor uptake in the data set on MDA-MB-435 tumor (1 h) and with MDA-MB-435 tumor (2 h) were 1.84 ± 0.44 % ID/g and 1.47 ± 0.19 % ID/g, respectively. For the same compound, in data set [1] (average of eight mice, 0.5 h), the Blood uptake is 1.40 ± 0.34 % ID/g. The Kidney uptake in data set [1] (average of eight mice, 0.5 h) was found to be 5.29 ± 0.58 % ID/g; in data set [1] (average of eight mice, 1 h), 4.32 ± 0.55 % ID/g; in data set [1] (average of eight mice, 2 h) it was 3.28±0.99 % ID/g. The Liver uptake in data set [1] (average of eight mice, 0.5 h) was 4.82 ± 1.34 % ID/g; in data set [1] (average of eight mice, 1 h) it was 4.05 ± 1.12 % ID/g; in data set [1] (average of eight mice, 2 h) it was 3.22 ± 0.97 % ID/g. For the same compound, the Muscle uptake in data set [1] (average of eight mice, 0.5 h) stood at 0.91 ± 0.27 % ID/g; in data set [1] (average of eight mice, 1 h), 0.75 ± 0.12 % ID/g; in data set [1] (average of eight mice, 2 h), 0.56 ± 0.33 % ID/g. Also, in data set [1] (blood, Blood uptake, average of eight mice, 1 h), the tissue uptake at 1 h worked out at 1.01 ± 0.21 %ID/g. Moreover, in data set [1] (blood, Blood uptake, average of eight mice, 2 h), the tissue uptake at 2 h was 0.89 ± 0.23 %ID/g. The tissue uptake at 4 h in data set [1] (setting [2]) was found to be 0.54 ± 0.2 %ID/g; in data set [1] (setting [3]), 2.95 ± 0.26 %ID/g; in data set [1] (setting [4]), 2.76 ± 0.81 %ID/g; in data set [1] (setting [5]), 0.4 ± 0.07 %ID/g. Further, the tissue uptake at 24 h in data set [1] (setting [2]) is 0.36 ± 0.04 %ID/g; in data set [1] (setting [3]), 2.1 ± 0.72 %ID/g; in data set [1] (setting [4]), 2.24 ± 0.36 %ID/g; in data set [1] (setting [5]) it was 0.21 ± 0.04 %ID/g. The values for the T47D tumor uptake with T47D tumor (0.5 h), with T47D tumor (1 h) and in the data set on T47D tumor (2 h) were 3.73 ± 0.81 % ID/g, 2.33 ± 0.59 % ID/g and 1.97 ± 0.32 % ID/g, respectively.

In the case of `CSCC[C@H](NC(=O)[C@H](CC(C)C)NC(=O)[C@H](Cc1c[nH]cn1)NC(=O)CNC(=O)[C@@H](NC(=O)[C@H](C)NC(=O)[C@H](Cc1c[nH]c2ccccc12)NC(=O)[C@H](CCC(N)=O)NC(=O)CCCCCNC(=O)CC[C@H](NC(=S)Nc1ccc(C[C@H]2CN(CC(=O)O)CCN(CC(=O)O)CCN2CC(=O)O)cc1)C(=O)NCCCC[C@@H]1NC(=O)[C@@H](Cc2ccc(O)cc2)NC(=O)[C@H](CC(=O)O)NC(=O)CNC(=O)[C@H](CCCNC(=N)N)NC1=O)C(C)C)C(N)=O` [^68Ga-NOTA-RGD-BBN, metal not drawn], the tissue uptake at 0.5 h was 8.76 ± 1.83 %ID/g in the data set “in vivo” (kidney uptake, biodistribution); 5.43 ± 0.54 %ID/g in the data set “in vivo” (tumor uptake, biodistribution); 2.68 ± 0.29 %ID/g in data set [1] (female, liver, Liver uptake, average of eight mice, 0.5 h); 4.39 ± 1.05 %ID/g in data set [1] (kidney, Kidney uptake, average of eight mice, 0.5 h); 1.33 ± 0.28 %ID/g in data set [1] (muscle, Muscle uptake, average of eight mice, 0.5 h). For the same compound, the tissue uptake at 1 h was determined as 5.58 ± 0.75 %ID/g in “in vivo” (kidney uptake, biodistribution); 4.76 ± 0.46 %ID/g in “in vivo” (tumor uptake, biodistribution); 3.96 ± 1.12 %ID/g in data set [1] (kidney, Kidney uptake, average of eight mice, 1 h); 2.08 ± 0.43 %ID/g in data set [1] (liver, Liver uptake, average of eight mice, 1 h); 1.18 ± 0.44 %ID/g in data set [1] (muscle, Muscle uptake, average of eight mice, 1 h). The “time of peak kidney uptake” value in the data set on PC-3 tumor (mouse, in vivo) is “about 10 min”. In addition, the Blood uptake in data set [1] (average of eight mice, 0.5 h) is 2.91 ± 0.28 % ID/g; in data set [1] (average of eight mice, 1 h), 1.95 ± 0.47 % ID/g; in data set [1] (average of eight mice, 2 h), 1.06 ± 0.23 % ID/g. For the same compound, the Kidney uptake in data set [1] (average of eight mice, 2 h) is 1.64±0.40 % ID/g. The compound further displayed a Liver uptake in data set [1] (average of eight mice, 2 h) of 1.60 ± 0.09 % ID/g. Besides, the tissue uptake at 2 h in data set [1] (female, kidney, Kidney uptake, average of eight mice, 2 h) stood at 1.64 ± 0.4 %ID/g; in data set [1] (muscle, Muscle uptake, average of eight mice, 2 h) it was 0.78 ± 0.07 %ID/g. Further, the “cell-associated tracer (cell retention)” value with PC-3 tumor cells (PC-3 cells, 60 min efflux, FIG. 14D) is 1.14±0.50 % AD.

Values taken from US20100015058A1, “RADIOLABELED BBN-RGD HETERODIMERS FOR CANCER TARGETING” (STANFORD UNIVERSITY, priority 2008, published 2010).
